According to paper PMC6019134, “1,2,6-Thiadiazinones as Novel Narrow Spectrum Calcium/Calmodulin-Dependent Protein Kinase Kinase 2 (CaMKK2) Inhibitors” (Molecules : A Journal of Synthetic Chemistry and Natural …, 2018):
Where “and” joins values, the source holds several entries; their conditions need not be identical. Equal values may be shown once.

Experiments:
[1] = Chemical stability of the dianilinothiadiazinone core (TLC); assay type: physicochemical; conditions: 48 h; neutral, acidic (HCl 2 M) or pH 9 aqueous conditions, BuNH2, PhNH2, PhSH, DDQ, Sn
Protocol: After the synthesis of the desired dianilino-TDZs (1–5), the stability of dianilinothiadiazinone in biological systems was assessed: 3,5-bis(phenylamino)-4H-1,2,6-thiadiazin-4-one (9) was subjected to neutral, acidic or slightly basic aqueous conditions (H2O/DMSO 50:50, THF/HCl 2 M 50:50 or THF/H2O 50:50 at pH 9 with a carbonate buffer), presence of amine or thiol nucleophiles (BuNH2 1 equiv., PhNH2 1 equiv., PhSH 1 equiv.), oxidizing [2,3-dichloro-5,6-dicyano-1,4-benzoquinone (DDQ) 2 equiv.] and reducing conditions (Sn, 2 equiv.).

[2] = molecular target: T1, human CaMKK2 (residues 50–588) (Homo sapiens, UniProt Q96RR4); assay: CaMKK2 enzyme assay ([γ-32P]-ATP, CaMKKtide peptide); assay type: biochemical; conditions: for IC50: 50 μM ATP, 7 concentrations, mean of 2 experiments;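 as to all read-outs here: radiometric kinase assay: phosphate transfer from [γ-32P]-ATP to synthetic peptide substrate, 10 min reaction at 30 °C, peptide-bound radioactivity captured on P81 paper and measured by scintillation counting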
T1 construct: recombinant bacterial expressed human CaMKK2 (residues 50–588); made in house
Protocol: CaMKK2 activity was measured by determining the rate of transfer of radiolabeled phosphate from [γ-^32P]-ATP to a synthetic peptide substrate [22].
A standard 30 μL assay, 1 ng of recombinant bacterial expressed human CaMKK2 (residues 50–588) was added to assay buffer (50 mM HEPES [pH 7.4], 1 mM DTT, 0.02% (v/v) Brij-35) containing 200 μM CaMKKtide peptide substrate, 50 μM CaCl2, 1 μM calmodulin (Sigma-Aldrich Corp., St. Louis, MO, USA), 50 μM [γ-^32P]-ATP (Perkin Elmer) and 5 mM MgCl2, in the presence and absence of different concentrations of small-molecule inhibitors. Reactions were incubated for 10 min at 30 °C, after which they were terminated by spotting 15 μL onto P81 phosphocellulose paper (Whatman, GE Healthcare, Chicago, IL, USA) and washing extensively in 1% phosphoric acid. Radioactivity was quantified by scintillation counting.

[3] = molecular target: T2, CAMKK2 kinase domain (132–470) (Homo sapiens, UniProt Q96RR4); assay: CaMKK2B TR-FRET tracer displacement assay; assay type: binding; conditions: for IC50 / FRET (IC50): CaMKK2, displacement of tracer 236, average of 2 experiments; for increase in potency over compound 2: CaMKK2 FRET IC50 relative to compound 2
T2 construct: CAMKK2 kinase domain (132–470) was cloned in a pNIC-Bio2 vector; 10xHis tag followed by a TEV site (N, cleaved yes); made in house; host or cells: E. coli BL21(DE3)-R3-BirA
T2 sequence (Q96RR4 132-470): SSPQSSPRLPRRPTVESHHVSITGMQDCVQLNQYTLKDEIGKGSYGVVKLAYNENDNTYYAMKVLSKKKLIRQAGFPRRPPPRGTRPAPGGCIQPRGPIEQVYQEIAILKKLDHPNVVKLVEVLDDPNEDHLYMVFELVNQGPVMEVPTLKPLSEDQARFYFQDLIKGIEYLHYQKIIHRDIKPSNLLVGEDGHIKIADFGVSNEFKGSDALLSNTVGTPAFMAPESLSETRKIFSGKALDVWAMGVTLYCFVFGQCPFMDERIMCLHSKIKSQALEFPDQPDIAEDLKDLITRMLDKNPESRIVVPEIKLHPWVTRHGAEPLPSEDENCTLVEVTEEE
Source text: To more accurately determine the relative changes in potency of the TDZ analogues and to enable measurement of accurate IC50^’s, we developed a Time-Resolved Fluorescence Resonance Energy Transfer (TR-FRET) assay. The TR-FRET tracer displacement assays were generated using a protocol derived from the Lanthascreen binding assays (ThermoFisher Scientific, Waltham, MA, USA) [21].

[4] = design: method as in PMID 17519230, PMID 12540834; conditions: cited from earlier work
[5] = tested on: arylhydrocarbon receptor (AhR); design: method as in PMID 18755850; conditions: cited from earlier work
[6] = tested on: kinases including ERK8, MNK1 and PIM3; design: method as in PMID 17519230, PMID 12540834; conditions: cited from earlier work

Molecule: O=c1c(Nc2ccccc2)nsnc1Nc1ccccc1 [Compound 9, 3,5-bis(phenylamino)-4H-1,2,6-thiadiazin-4-one]
- stability (by TLC) [1]: stable

Molecule: Cc1ccc(Nc2nsnc(Nc3ccc(C(=O)O)cc3)c2=O)cc1O [Compound 12, 4-({5-[(3-Hydroxy-4-methylphenyl)amino]-4-oxo-4H-1,2,6-thiadiazin-3-yl}amino)benzoic acid]
- IC50 [2]: 4.09 µM and 4.1 µM
- Enzyme assay raw data (0 μM drug = 100.00) ([2]; [drug] 0.001 μM): 102.38
- Enzyme assay raw data (0 μM drug = 100.00) ([2]; [drug] 0.01 μM): 95.03
- Enzyme assay raw data (0 μM drug = 100.00) ([2]; [drug] 0.1 μM): 89.54
- Enzyme assay raw data (0 μM drug = 100.00) ([2]; [drug] 1 μM): 79.70
- Enzyme assay raw data (0 μM drug = 100.00) ([2]; [drug] 10 μM): 28.43
- Enzyme assay raw data (0 μM drug = 100.00) ([2]; [drug] 100 μM): 0.83
- IC50 [3]: 10.5 µM
- increase in potency over compound 2 [3]: > 5 fold

Molecule: O=C(O)c1ccc2c3c1cccc3c(=O)n1c3ccccc3nc21 [STO-609, 7-oxo-7H-benzimidazo[2,1-a]benz[de]isoquinoline-3-carboxylic acid, reference compound]
- Enzyme assay raw data (0 μM drug = 100.00) ([2]; [drug] 0.001 μM): 88.33
- Enzyme assay raw data (0 μM drug = 100.00) ([2]; [drug] 0.01 μM): 69.88
- Enzyme assay raw data (0 μM drug = 100.00) ([2]; [drug] 0.1 μM): 42.21
- Enzyme assay raw data (0 μM drug = 100.00) ([2]; [drug] 1 μM): 4.64
- Enzyme assay raw data (0 μM drug = 100.00) ([2]; [drug] 10 μM): 1.89
- Enzyme assay raw data (0 μM drug = 100.00) ([2]; [drug] 100 μM): 0.07
- solubility [4]: poor solubility
- activity on arylhydrocarbon receptor (AhR) [5]: agonist
- off-target kinome profile [6]: unfavorable off-target kinome profile

Molecule: 4-({5-[(3-Hydroxy-4-methylphenyl)amino]-4-oxo-4H-1,2,6-thiadiazin-3-yl}(oxazol-4-ylmethyl)amino)-benzamide [Compound 16]
- IC50 [3]: > 50 µM

Molecule: Cc1ccc(Nc2nsnc(Nc3ccccc3C#N)c2=O)cc1O [Compound 13, 2-({5-[(3-Hydroxy-4-methylphenyl)amino]-4-oxo-4H-1,2,6-thiadiazin-3-yl}amino)benzonitrile]
- melting point: 229 to 230 °C
- IC50 [3]: 43 µM

Molecule: Cc1ccc(Nc2nsnc(Nc3cccc(C#N)c3)c2=O)cc1O [Compound 14, 3-({5-[(3-Hydroxy-4-methylphenyl)amino]-4-oxo-4H-1,2,6-thiadiazin-3-yl}amino)benzonitrile]
- melting point: 258 to 259 °C
- IC50 [3]: > 50 µM

Molecule: Cc1ccc(Nc2nsnc(-c3ccc(C(=O)O)c(C4CCCC4)c3)c2=O)cc1O [Compound 19, 2-Cyclopentyl-4-{5-[(3-hydroxy-4-methylphenyl)amino]-4-oxo-4H-1,2,6-thiadiazin-3-yl}-benzoic acid]
- melting point: 277 to 278 °C
- IC50 [3]: 38 µM

Molecule: Cc1ccc(Nc2nsnc(Nc3ccccc3C(N)=O)c2=O)cc1O [Compound 10, 2-({5-[(3-Hydroxy-4-methylphenyl)amino]-4-oxo-4H-1,2,6-thiadiazin-3-yl}amino)benzamide]
- IC50 [2]: 11.9 µM
- Enzyme assay raw data (0 μM drug = 100.00) ([2]; [drug] 0.001 μM): 102.30
- Enzyme assay raw data (0 μM drug = 100.00) ([2]; [drug] 0.01 μM): 98.48
- Enzyme assay raw data (0 μM drug = 100.00) ([2]; [drug] 0.1 μM): 91.02
- Enzyme assay raw data (0 μM drug = 100.00) ([2]; [drug] 1 μM): 85.36
- Enzyme assay raw data (0 μM drug = 100.00) ([2]; [drug] 10 μM): 52.53
- Enzyme assay raw data (0 μM drug = 100.00) ([2]; [drug] 100 μM): 2.19
- IC50 [3]: 7.8 µM
- increase in potency over compound 2 [3]: > 8 fold

Molecule: Cc1ccc(Nc2nsnc(Nc3cccc(C(F)(F)F)c3CO)c2=O)cc1O [Compound 18, 3-[(3-Hydroxy-4-methylphenyl)amino]-5-{[2-(hydroxymethyl)-3-(trifluoromethyl)phenyl]amino}-4H-1,2,6-thiadiazin-4-one]
- FRET (IC50) [3]: effectively inactive
- IC50 [3]: > 50 µM

Molecule: Cc1ccc(Nc2nsnc(Nc3ccccc3CO)c2=O)cc1O [Compound 17, 3-[(3-Hydroxy-4-methylphenyl)amino]-5-{[2-(hydroxymethyl)phenyl]amino}-4H-1,2,6-thiadiazin-4-one]
- FRET (IC50) [3]: effectively inactive
- IC50 [3]: > 50 µM

Molecule: Cc1ccc(Nc2nsnc(Nc3ccc(C#N)cc3)c2=O)cc1O [Compound 15, 4-({5-[(3-Hydroxy-4-methylphenyl)amino]-4-oxo-4H-1,2,6-thiadiazin-3-yl}amino)benzonitrile]
- melting point: 280 °C (dec.)
- IC50 [3]: > 50 µM

Molecule: Cc1ccc(Nc2nsnc(Nc3ccc(-c4ncc[nH]4)cc3)c2=O)cc1O [Compound 11, 3-{[4-(1H-Imidazol-2-yl)phenyl]amino}-5-[(3-hydroxy-4-methylphenyl)amino]-4H-1,2,6-thiadiazin-4-one]
- IC50 [2]: 6.51 µM and 6.5 µM
- Enzyme assay raw data (0 μM drug = 100.00) ([2]; [drug] 0.001 μM): 98.56
- Enzyme assay raw data (0 μM drug = 100.00) ([2]; [drug] 0.01 μM): 93.09
- Enzyme assay raw data (0 μM drug = 100.00) ([2]; [drug] 0.1 μM): 84.85
- Enzyme assay raw data (0 μM drug = 100.00) ([2]; [drug] 1 μM): 79.37
- Enzyme assay raw data (0 μM drug = 100.00) ([2]; [drug] 10 μM): 42.11
- Enzyme assay raw data (0 μM drug = 100.00) ([2]; [drug] 100 μM): 1.23
- IC50 [3]: 3.2 µM
- increase in potency over compound 2 [3]: > 15 fold
